# Data: publication PMC11956013, “Structure–Activity Relationships and Evaluation of 2-(Heteroaryl-cycloalkyl)-1H-indoles as Tauopathy Positron Emission Tomography Radiotracers” (Journal of Medicinal Chemistry, 2025)
# Experiments:
# A1 (h) = A1 (h) (Homo sapiens, UniProt P30542); conditions: 1.0E-05 M; A1 (h) (antagonist radioligand)
# Ca2+ channel (N) = format: binding
# [1] = system: sigma (non-selective) (h); conditions: compound concentration 1.0E-05 M
# CGRP (h) = CGRP (h) (Homo sapiens, UniProt O60894+Q16602); assay: biochemical
# JNK1 (h) = JNK1 (h) (Homo sapiens, UniProt P45983); conditions: Enzymatic activity; 1.0E-05 M
# GABA transaminase = GABA transaminase (Rattus norvegicus, UniProt P50554); assay: GABA transaminase, Eurofins assay 461; format: biochemical; conditions: Enzymatic activity; 1.0E-05 M
# p38alpha kinase (h) = p38alpha kinase (h) (Homo sapiens, UniProt Q16539); conditions: compound concentration 1.0E-05 M
# acetylcholinesterase (h) = acetylcholinesterase (h) (Homo sapiens, UniProt P22303)
# CB1 (h) = CB1 (h) (Homo sapiens, UniProt P21554); assay: biochemical
# D4.4 (h) = D4.4 (h) (Homo sapiens, UniProt P21917); assay: biochemical
# OX2 (h) = target: T1, OX2 (h) (Homo sapiens, UniProt O43614); assay: Eurofins panel: OX2 (h) (agonist radioligand); conditions: compound concentration 1.0E-05 M
# T1 sequence (O43614 1-444): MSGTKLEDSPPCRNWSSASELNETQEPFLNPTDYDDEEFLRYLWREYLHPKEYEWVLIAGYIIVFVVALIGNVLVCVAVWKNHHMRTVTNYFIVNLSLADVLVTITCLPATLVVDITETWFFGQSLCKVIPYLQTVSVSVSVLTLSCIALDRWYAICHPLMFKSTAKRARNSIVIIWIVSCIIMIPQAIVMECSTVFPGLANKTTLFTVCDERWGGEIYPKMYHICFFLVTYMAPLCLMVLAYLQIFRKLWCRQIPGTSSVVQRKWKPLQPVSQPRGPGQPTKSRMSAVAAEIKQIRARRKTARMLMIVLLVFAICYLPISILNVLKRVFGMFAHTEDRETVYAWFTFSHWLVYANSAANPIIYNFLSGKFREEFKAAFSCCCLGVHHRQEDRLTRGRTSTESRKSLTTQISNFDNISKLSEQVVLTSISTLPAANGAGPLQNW
# M2 (h) = M2 (h) (Homo sapiens, UniProt P08172); assay: biochemical
# CYP3A = CYP3A (Homo sapiens, UniProt P08684); assay: in vitro; conditions: human liver microsomes, probe midazolam
# alpha2A (h) = alpha2A (h) (Homo sapiens, UniProt P08913); conditions: 1.0E-05 M; alpha2A (h) (antagonist radioligand)
# MT1 (ML1A) (h) = MT1 (ML1A) (h) (Homo sapiens, UniProt P48039); assay: MT1 (ML1A) (h) (agonist radioligand), Eurofins assay 1538
# mu (MOP) (h) = mu (MOP) (h) (Homo sapiens, UniProt P35372); assay: Eurofins panel: mu (MOP) (h) (agonist radioligand); conditions: compound concentration 1.0E-05 M
# 5-HT transporter (h) = 5-HT transporter (h) (Homo sapiens, UniProt P31645); assay: Eurofins panel: 5-HT transporter (h) (antagonist radioligand); conditions: 1.0E-05 M
# [2] = target: norepinephrine transporter (h) (Homo sapiens, UniProt P23975); conditions: compound concentration 1.0E-05 M
# 5-HT1B (h) = 5-HT1B (h) (Homo sapiens, UniProt P28222); assay: Eurofins panel: 5-HT1B (h) (antagonist radioligand); conditions: 1.0E-05 M
# [3] = target: GABAA1 (h) (alpha1,beta2,gamma2) (Homo sapiens, UniProt P14867+P47870); assay: GABAA1 (h) (alpha1,beta2,gamma2) (agonist radioligand), Eurofins assay 3051
# CCK2 (CCKB) (h) = CCK2 (CCKB) (h) (Homo sapiens, UniProt P32239); assay: biochemical
# beta1 (h) = beta1 (h) (Homo sapiens, UniProt P08588); conditions: 1.0E-05 M; beta1 (h) (agonist radioligand)
# BZDp (TSPO) (h) = BZDp (TSPO) (h) (Homo sapiens, UniProt P30536); assay: Eurofins panel: BZDp (TSPO) (h) (antagonist radioligand); conditions: 1.0E-05 M; BZDp (TSPO) (h) (antagonist radioligand)
# 98 CNS protein targets = assay: Eurofins CNS SafetyScreen panel at 10 μM; format: binding; conditions: 10-μM concentration
# mGluR5 (h) = mGluR5 (h) (Homo sapiens, UniProt P41594); assay: Eurofins panel: mGluR5 (h) (agonist radioligand); conditions: 1.0E-05 M; mGluR5 (h) (agonist radioligand)
# Y2 (h) = Y2 (h) (Homo sapiens, UniProt P49146); conditions: compound concentration 1.0E-05 M
# [4] = target: human monoamine oxidase-B (MAO-B) (Homo sapiens, UniProt P27338)
# CCK1 (CCKA) (h) = CCK1 (CCKA) (h) (Homo sapiens, UniProt P32238); assay: biochemical
# cathepsin B (h) = target: T2, cathepsin B (h) (Homo sapiens, UniProt P07858); assay: Eurofins panel: cathepsin B (h) enzymatic activity; format: biochemical; conditions: 1.0E-05 M; cathepsin B (h)
# T2 construct: Eurofins (panel run by the vendor)
# M4 (h) = M4 (h) (Homo sapiens, UniProt P08173); assay: M4 (h) (antagonist radioligand), Eurofins assay 96
# Sequence of M4 (h) (P08173 whole entry): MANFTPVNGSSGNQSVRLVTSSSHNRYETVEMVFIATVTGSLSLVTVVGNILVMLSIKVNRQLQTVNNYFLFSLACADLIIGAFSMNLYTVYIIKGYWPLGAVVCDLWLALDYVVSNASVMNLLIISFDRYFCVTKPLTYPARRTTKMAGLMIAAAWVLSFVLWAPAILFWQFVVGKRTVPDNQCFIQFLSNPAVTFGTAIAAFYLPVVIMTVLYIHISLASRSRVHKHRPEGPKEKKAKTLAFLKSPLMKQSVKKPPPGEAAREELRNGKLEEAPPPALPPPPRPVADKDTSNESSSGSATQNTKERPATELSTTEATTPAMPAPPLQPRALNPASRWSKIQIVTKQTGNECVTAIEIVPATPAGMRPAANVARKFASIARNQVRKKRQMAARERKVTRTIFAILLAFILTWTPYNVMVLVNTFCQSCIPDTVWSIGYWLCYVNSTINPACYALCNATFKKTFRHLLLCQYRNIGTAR
# Sequence of M2 (h) (P08172 whole entry): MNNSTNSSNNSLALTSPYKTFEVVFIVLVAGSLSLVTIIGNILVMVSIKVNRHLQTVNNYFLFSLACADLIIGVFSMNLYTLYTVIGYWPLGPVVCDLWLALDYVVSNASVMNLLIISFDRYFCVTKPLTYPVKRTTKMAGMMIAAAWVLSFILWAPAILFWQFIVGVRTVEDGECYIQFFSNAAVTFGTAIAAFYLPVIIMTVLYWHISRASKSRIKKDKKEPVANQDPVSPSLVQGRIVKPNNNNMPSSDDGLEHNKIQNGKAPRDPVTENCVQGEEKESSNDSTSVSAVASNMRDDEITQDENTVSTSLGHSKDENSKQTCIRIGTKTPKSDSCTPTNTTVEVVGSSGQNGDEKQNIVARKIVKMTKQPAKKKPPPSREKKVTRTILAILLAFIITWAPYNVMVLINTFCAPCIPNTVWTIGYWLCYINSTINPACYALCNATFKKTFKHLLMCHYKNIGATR
# Sequence of CCK1 (CCKA) (h) (P32238 whole entry): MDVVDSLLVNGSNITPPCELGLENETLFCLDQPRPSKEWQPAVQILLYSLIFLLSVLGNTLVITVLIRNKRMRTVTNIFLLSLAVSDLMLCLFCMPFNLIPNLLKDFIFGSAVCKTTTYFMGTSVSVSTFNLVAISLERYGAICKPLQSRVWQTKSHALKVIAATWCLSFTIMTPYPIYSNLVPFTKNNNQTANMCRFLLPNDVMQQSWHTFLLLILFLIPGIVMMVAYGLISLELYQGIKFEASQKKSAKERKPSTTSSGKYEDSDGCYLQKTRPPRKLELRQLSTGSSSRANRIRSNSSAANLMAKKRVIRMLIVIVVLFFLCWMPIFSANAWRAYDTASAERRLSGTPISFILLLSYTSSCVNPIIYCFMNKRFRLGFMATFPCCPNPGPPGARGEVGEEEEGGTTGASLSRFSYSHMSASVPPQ
# Sequence of Y2 (h) (P49146 whole entry): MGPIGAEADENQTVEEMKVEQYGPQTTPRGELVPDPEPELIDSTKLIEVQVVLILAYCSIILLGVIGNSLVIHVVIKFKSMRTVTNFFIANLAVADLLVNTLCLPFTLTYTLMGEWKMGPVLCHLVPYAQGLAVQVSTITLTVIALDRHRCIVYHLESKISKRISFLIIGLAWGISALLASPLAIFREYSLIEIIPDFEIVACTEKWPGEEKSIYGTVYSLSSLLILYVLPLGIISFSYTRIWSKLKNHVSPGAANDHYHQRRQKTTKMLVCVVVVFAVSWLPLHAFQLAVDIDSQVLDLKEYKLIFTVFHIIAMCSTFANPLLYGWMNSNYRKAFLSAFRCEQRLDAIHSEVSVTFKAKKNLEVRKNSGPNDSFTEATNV
# Sequence of mu (MOP) (h) (P35372 whole entry): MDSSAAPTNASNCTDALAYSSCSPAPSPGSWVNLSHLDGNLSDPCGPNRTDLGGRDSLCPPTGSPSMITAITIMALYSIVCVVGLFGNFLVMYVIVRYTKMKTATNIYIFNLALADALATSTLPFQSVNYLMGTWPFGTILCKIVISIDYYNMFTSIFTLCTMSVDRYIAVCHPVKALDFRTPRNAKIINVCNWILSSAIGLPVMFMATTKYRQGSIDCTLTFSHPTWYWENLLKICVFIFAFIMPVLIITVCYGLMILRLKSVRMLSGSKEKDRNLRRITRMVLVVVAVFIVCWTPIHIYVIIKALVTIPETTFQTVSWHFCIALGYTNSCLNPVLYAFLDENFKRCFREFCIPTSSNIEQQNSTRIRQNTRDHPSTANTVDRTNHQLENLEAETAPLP
# Sequence of D4.4 (h) (P21917 whole entry): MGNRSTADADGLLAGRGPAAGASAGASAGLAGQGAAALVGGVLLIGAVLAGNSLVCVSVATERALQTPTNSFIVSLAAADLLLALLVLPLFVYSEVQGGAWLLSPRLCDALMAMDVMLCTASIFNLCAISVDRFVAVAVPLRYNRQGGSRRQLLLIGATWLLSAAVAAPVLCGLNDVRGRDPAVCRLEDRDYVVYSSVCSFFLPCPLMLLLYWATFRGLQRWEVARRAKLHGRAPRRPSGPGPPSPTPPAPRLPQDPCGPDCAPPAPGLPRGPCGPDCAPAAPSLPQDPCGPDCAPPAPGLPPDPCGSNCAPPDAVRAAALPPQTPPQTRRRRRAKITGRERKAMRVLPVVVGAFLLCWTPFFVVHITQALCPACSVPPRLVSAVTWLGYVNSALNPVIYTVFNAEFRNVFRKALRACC
# Sequence of p38alpha kinase (h) (Q16539 whole entry): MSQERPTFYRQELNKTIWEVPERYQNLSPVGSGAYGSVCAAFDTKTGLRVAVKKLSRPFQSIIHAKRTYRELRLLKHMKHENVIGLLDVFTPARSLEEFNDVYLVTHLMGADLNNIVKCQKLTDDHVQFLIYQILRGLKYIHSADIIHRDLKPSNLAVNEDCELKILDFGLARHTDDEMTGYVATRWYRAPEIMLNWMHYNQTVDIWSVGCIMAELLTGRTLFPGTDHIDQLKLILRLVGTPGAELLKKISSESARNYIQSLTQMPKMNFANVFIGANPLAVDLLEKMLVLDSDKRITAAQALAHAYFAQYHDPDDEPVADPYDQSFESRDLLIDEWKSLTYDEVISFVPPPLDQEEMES
# Sequence of GABAA1 (h) (alpha1,beta2,gamma2) (P18507 40-475): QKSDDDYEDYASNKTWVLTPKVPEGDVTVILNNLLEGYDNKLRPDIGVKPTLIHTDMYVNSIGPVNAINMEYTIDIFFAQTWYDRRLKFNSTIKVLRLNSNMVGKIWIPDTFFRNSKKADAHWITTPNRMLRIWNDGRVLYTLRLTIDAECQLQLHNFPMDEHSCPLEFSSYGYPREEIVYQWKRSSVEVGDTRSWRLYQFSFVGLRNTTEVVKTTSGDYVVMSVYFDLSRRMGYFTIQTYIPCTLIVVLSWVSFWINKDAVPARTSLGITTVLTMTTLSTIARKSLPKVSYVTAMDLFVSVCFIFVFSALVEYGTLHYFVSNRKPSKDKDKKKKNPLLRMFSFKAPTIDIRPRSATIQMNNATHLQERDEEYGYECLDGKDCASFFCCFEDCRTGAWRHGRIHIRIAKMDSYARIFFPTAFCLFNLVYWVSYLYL
# Sequence of GABAA1 (h) (alpha1,beta2,gamma2) (P14867 28-456): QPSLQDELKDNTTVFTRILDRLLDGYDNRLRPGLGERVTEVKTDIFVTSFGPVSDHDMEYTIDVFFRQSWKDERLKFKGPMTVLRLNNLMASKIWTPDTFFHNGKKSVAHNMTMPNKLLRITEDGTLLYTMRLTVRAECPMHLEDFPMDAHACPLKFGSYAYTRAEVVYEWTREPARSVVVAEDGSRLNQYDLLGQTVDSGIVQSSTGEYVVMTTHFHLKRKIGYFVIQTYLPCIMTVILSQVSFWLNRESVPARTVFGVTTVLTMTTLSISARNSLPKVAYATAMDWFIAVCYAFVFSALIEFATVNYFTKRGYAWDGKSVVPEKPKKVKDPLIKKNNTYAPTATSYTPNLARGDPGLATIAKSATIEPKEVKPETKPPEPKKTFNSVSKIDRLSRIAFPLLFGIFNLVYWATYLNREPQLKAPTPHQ
# Sequence of GABAA1 (h) (alpha1,beta2,gamma2) (P47870 25-512): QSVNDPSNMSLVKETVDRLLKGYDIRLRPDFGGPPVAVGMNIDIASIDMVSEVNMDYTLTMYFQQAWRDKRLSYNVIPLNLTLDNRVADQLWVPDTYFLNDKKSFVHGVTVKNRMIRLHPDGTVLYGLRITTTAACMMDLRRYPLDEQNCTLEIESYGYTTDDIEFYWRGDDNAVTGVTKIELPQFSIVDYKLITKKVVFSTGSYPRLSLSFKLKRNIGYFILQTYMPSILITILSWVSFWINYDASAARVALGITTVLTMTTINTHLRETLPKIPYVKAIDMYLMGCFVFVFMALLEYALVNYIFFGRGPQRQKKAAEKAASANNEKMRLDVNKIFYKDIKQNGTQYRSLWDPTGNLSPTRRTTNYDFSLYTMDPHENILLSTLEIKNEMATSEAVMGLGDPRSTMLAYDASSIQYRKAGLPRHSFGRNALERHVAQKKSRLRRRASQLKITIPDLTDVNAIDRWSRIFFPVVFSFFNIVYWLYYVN
# Sequence of beta1 (h) (P08588 whole entry): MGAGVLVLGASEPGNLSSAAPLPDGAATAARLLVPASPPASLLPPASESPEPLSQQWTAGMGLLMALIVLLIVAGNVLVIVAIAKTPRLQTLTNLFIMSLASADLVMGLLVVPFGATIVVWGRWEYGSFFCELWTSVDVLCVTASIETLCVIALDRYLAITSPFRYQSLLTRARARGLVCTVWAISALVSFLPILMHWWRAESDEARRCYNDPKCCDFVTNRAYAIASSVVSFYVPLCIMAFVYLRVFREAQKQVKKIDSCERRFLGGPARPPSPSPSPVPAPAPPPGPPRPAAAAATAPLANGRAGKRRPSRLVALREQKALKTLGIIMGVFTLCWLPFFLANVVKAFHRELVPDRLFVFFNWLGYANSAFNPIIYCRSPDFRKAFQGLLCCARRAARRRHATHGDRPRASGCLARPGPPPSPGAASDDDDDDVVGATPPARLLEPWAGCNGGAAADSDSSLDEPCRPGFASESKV
# Sequence of BZDp (TSPO) (h) (P30536 whole entry): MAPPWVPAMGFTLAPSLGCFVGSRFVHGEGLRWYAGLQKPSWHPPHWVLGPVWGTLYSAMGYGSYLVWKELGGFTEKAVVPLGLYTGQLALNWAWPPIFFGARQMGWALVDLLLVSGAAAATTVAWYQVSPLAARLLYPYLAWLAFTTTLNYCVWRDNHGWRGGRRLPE
smiles,measurement,setting,value
"Fc1nc(N2CCOCC2)ccc1-c1cc2ccccc2[nH]1 [Compound 75, 4-(6-Fluoro-5-(1H-indol-2-yl)pyridin-2-yl)morpholine]","% Inhibition, Specific binding",A1 (h),-7.64E+00%
same,"% Inhibition, Specific binding",Ca2+ channel (N),-3.62E+00%
same,"% Inhibition, Specific binding",[1],-4.77E+00%
same,inhibition at 10 µM,CGRP (h),-5.83%
same,% Inhibition,JNK1 (h),-3.56E-01%
same,inhibition at 10 µM,GABA transaminase,-0.726%
same,"% Inhibition, Enzymatic activity",p38alpha kinase (h),10.339%
same,"% Inhibition, Enzymatic activity",acetylcholinesterase (h),1.77%
same,inhibition at 10 µM,CB1 (h),-0.0362%
same,inhibition at 10 µM,D4.4 (h),20.4%
same,"% Inhibition, Specific binding",OX2 (h),0.786%
same,inhibition at 10 µM,M2 (h),-12.8%
same,inhibition at 10 µM,CYP3A,-2.45%
same,"% Inhibition, Specific binding",alpha2A (h),-8.25E+00%
same,inhibition at 10 µM,MT1 (ML1A) (h),13%
same,"% Inhibition, Specific binding",mu (MOP) (h),-1.17E+00%
same,"% Inhibition, Specific binding",5-HT transporter (h),-9.53E+00%
same,"% Inhibition, Specific binding",[2],-1.11E+01%
same,"% Inhibition, Specific binding",5-HT1B (h),-1.91E+01%
same,inhibition at 10 µM,[3],7.7%
same,inhibition at 10 µM,CCK2 (CCKB) (h),2.96%
same,"% Inhibition, Specific binding",beta1 (h),12.2039%
same,"% Inhibition, Specific binding",BZDp (TSPO) (h),21.7657%
same,inhibition at 96 of 98 CNS targets,98 CNS protein targets,≤ 25.3%
same,"% Inhibition, Specific binding",mGluR5 (h),-1.20E+01%
same,"% Inhibition, Specific binding",Y2 (h),3.943%
same,inhibition at human MAO-B (vs deprenyl),[4],61%
same,inhibition at 10 µM,CCK1 (CCKA) (h),-78.7%
same,"% Inhibition, Enzymatic activity",cathepsin B (h),-8.47E+00%
same,inhibition at 10 µM,M4 (h),-20.6%
